Laboratory results reported in patent US20080227780A1, “SOLUBLE EPOXIDE HYDROLASE INHIBITORS” (Arete Therapeutics, Inc., priority 2007, published 2008).

What follows are compounds tested on soluble epoxide hydrolase (sEH) (assay: Fluorescent assay for soluble epoxide hydrolase (CMNPC substrate), percent inhibition at the recited concentration). Settings: Inhibition Conc. 50 nM.
Assay type: biochemical
From the text: Fluorescent Assay for Mouse and Human Soluble Epoxide Hydrolase Recombinant mouse sEH (MsEH) and human sEH (HsEH) were produced in a baculovirus expression system as previously reported. Grant et al., J. Biol. Chem., 268:17628-17633 (1993); Beetham et al., Arch. Biochem. Biophys., 305:197-201 (1993). The expressed proteins were purified from cell lysate by affinity chromatography. Wixtrom et al., Anal. Biochem., 169:71-80 (1988). Protein concentration was quantified using the Pierce BCA assay using bovine serum albumin as the calibrating standard. The preparations were at least 97% pure as judged by SDS-PAGE and scanning densitometry. They contained no detectable esterase or glutathione transferase activity which can interfere with the assay. The assay was also evaluated with similar results in crude cell lysates or homogenate of tissues. The IC50s for each inhibitor were determined according to the following procedure: […] Jones P. D. et al.; Analytical Biochemistry 2005; 343: pp. 66-75) Bis/Tris HCl 25 mM pH 7.0 containing 0.1 mg/mL of BSA (buffer […] at 0.25 mM in DMSO. Mother solution of enzyme in buffer A (Mouse sEH at 6 μg/mL and Human sEH at 5 μg/mL). Inhibitor dissolved in DMSO at the appropriate concentration. In a black 96 well plate, fill all the wells with 150 μL of buffer A. Add 2 μL of DMSO in well A2 and A3, and then add 2 μL of inhibitor solution in A1 and A4 through A12. Add 150 μL of buffer A in row A, then mix several time and transfer 150 μL to row B. Repeat this operation up to row H. The 150 μL removed from row H is discarded. Add 20 μL of buffer A in column 1 and 2, then add 20 μL of enzyme solution to column 3 to 12. Incubate the plate for 5 minutes in the plate reader at 30° C. During incubation prepare the working solution of substrate by mixing 3.68 mL of buffer A (4×0.920 mL) with 266 μL (2×133 μL) of substrate solution). At t=0, add 30 μL of working substrate solution with multi-channel pipette labeled “Briggs 303” and start the reading ([S]final: 5 μM). Read with ex: 330 nm (20 nm) and em: 465 nm (20 nm) every 30 second for 10 minutes. The velocities are used to analyze and calculate the IC50s. Tables 1-7 above provide the percent inhibition of the enzyme when tested at the concentration recited therein.

Row | % inh. [%] | Structure (SMILES)
1 | 93 | CNS(=O)(=O)c1cccc(C(=O)N2CCC(NC(=O)Nc3ccc(OC(F)(F)F)cc3)CC2)c1 [Compound 4-10, N-methyl-3-(4-(3-(4-(trifluoromethoxy)-phenyl)ureido)-piperidine-1-carbonyl)benzene-sulfonamide]
2 | 80 | CC(C)(C)OC(=O)N1CCC(NC(=O)Nc2ccc(S(=O)(=O)N3CCOCC3)cc2)CC1 [Compound 5-1, tert-butyl 4-(3-(4-(morpholinosulfonyl)-phenyl)ureido)-piperidine-1-carboxylate]
3 | 86 | CC(C)(C)OC(=O)N1CCC(NC(=O)Nc2ccc3ncccc3c2)CC1 [Compound 6-1, tert-butyl 4-(3-quinolin-6-yl-ureido)piperidine-1-carboxylate]
4 | 92 | CC(C)(C)OC(=O)N1CCC(NC(=O)Nc2ccc3c(c2)CCC3)CC1 [Compound 6-5, tert-butyl 4-(3-(2,3-dihydro-1H-inden-5-yl)ureido)-piperidine-1-carboxylate]
5 | 99 | COc1ccc(S(=O)(=O)N2CCC(NC(=O)NC34CC5CC(CC(C5)C3)C4)CC2)cc1 [Compound 7-1, 1-(1-adamantyl)-3-(1-(4-methoxyphenylsulfonyl)-piperidin-4-yl)urea]
6 | 98 | O=C(Nc1ccc(OC(F)(F)F)cc1)NC1CCN(C(=O)c2ccccn2)CC1 [Compound 7-2, 1-(1-picolinoylpiperidin-4-yl)-3-(4-(trifluoro-methoxy)phenyl)urea]
7 | 72 | CCC1CCC(NC(=O)NC2CCN(C(C)=O)CC2)CC1 (stereo not drawn) [Compound 7-4, 1-(1-acetylpiperidin-4-yl)-3-(4-ethylcyclohexyl)urea]
8 | 93 | CC(=O)N1CCC(NC(=O)NC2CCC3CCCCC3C2)CC1 (stereo not drawn) [Compound 7-5, 1-(1-acetylpiperidin-4-yl)-3-(decahydronaphthalen-2-yl)urea]
9 | 70 | CC(=O)N1CCC(NC(=O)NC2CCC(C)(C)CC2)CC1 [Compound 7-6, 1-(1-acetylpiperidin-4-yl)-3-(4,4-dimethylcyclo-hexyl)urea]
10 | 88 | CC(=O)N1CCC(NC(=O)NC2CC3CCC2C3)CC1 (stereo not drawn) [Compound 7-7, 1-(1-acetylpiperidin-4-yl)-3-(bicyclo[2.2.1]heptan-2-yl)urea]
11 | 89 | Cc1nc(C(=O)N2CCC(NC(=O)NC34CC5CC(CC(C5)C3)C4)CC2)c(C)o1 [Compound 7-8, 1-(1-adamantyl)-3-(1-(2,5-dimethyloxazole-4-carbonyl)piperidin-4-yl)urea]
12 | 92 | CC(C)(C)OC(=O)N1CCC(NC(=O)Nc2ccc(Oc3ccccc3)cc2)CC1 [Compound 7-9, tert-butyl 4-(3-(4-phenoxyphenyl)ureido)-piperidine-1-carboxylate]
13 | 80 | CCCOc1ccc(NC(=O)NC2CCN(C(=O)OC(C)(C)C)CC2)cc1 [Compound 7-10, tert-butyl 4-(3-(4-propoxyphenyl)ureido)-piperidine-1-carboxylate]
14 | 91 | CC(C)(C)C(=O)N1CCC(NC(=O)NC23CC4CC(CC(C4)C2)C3)CC1 [Compound 7-13, 1-(1-adamantyl)-3-(1-pivaloylpiperidin-4-yl)urea]
15 | 92 | COC(=O)N1CCC(NC(=O)Nc2ccc(C(F)(F)F)cc2)CC1 [Compound 7-14, methyl 4-(3-(4-(trifluoromethyl)phenyl)ureido)piperidine-1-carboxylate]
16 | 93 | CCOC(=O)N1CCC(NC(=O)Nc2ccc(C(F)(F)F)cc2)CC1 [Compound 7-15, ethyl 4-(3-(4-(trifluoromethyl)phenyl)ureido)piperidine-1-carboxylate]
17 | 98 | O=C(Nc1ccc(C(F)(F)F)cc1)NC1CCN(C(=O)Nc2ccc(C(F)(F)F)cc2)CC1 [Compound 7-16, N-(4-(trifluoromethyl)phenyl)-4-(3-(4-(trifluoro-methyl)phenyl)ureido)-piperidine-1-carboxamide]

Same assay, conditions: Inhibition Conc. 200 nM

Row | % inh. [%] | Structure (SMILES)
18 | 77 | Cc1nc2ccc(NC(=O)NC3CCN(C(=O)OC(C)(C)C)CC3)cc2s1 [Compound 6-14, tert-butyl 4-(3-(2-methylbenzo[d]thiazol-6-yl)ureido)piperidine-1-carboxylate]
19 | 87 | COC(=O)c1ccc(NC(=O)NC2CCN(C(=O)OC(C)(C)C)CC2)s1 [Compound 6-17, tert-butyl 4-(3-(5-(methoxycarbonyl)thiophen-2-yl)ureido)piperidine-1-carboxylate]

Same assay, conditions: Inhibition Conc. 500 nM

Row | % inh. [%] | Structure (SMILES)
20 | 94 | CNS(=O)(=O)c1ccc(C(=O)N2CCC(NC(=O)Nc3ccc(F)cc3)CC2)cc1 [Compound 4-11, 4-(4-(3-(4-fluorophenyl)ureido)piperidine-1-carbonyl)-N-methylbenzene-sulfonamide]
21 | 90 | CC(=O)N1CCC(NC(=O)Nc2ccc(S(=O)(=O)N3CCOCC3)cc2)CC1 [Compound 5-2, 1-(1-acetylpiperidin-4-yl)-3-(4-(morpholinosulfonyl)phenyl)urea]
22 | 87 | CC(C)(C)OC(=O)N1CCC(NC(=O)Nc2ccc3cc[nH]c3c2)CC1 [Compound 6-2, tert-butyl 4-(3-1H-indol-6-yl-ureido)piperidine-1-carboxylate]
23 | 70 | CC(=O)N1CCC(NC(=O)Nc2ccc3ncccc3c2)CC1 [Compound 6-4, 1-(1-acetylpiperidin-4-yl)-3-(quinolin-6-yl)urea]
24 | 93 | CC(=O)N1CCC(NC(=O)Nc2ccc3c(c2)CCC3)CC1 [Compound 6-6, 1-(1-acetyl-piperidin-4-yl)-3-(2,3-dihydro-1H-inden-5-yl)urea]
25 | 93 | CC(C)(C)OC(=O)N1CCC(NC(=O)Nc2ccc(-c3nnn[nH]3)cc2)CC1 [Compound 6-8, tert-butyl 4-(3-(4-(1H-tetrazol-5-yl)phenyl)-ureido)piperidine-1-carboxylate]
26 | 86 | CC(=O)N1CCC(NC(=O)NC2CCC(C(C)(C)C)CC2)CC1 (stereo not drawn) [Compound 7-3, 1-(1-acetylpiperidin-4-yl)-3-(4-tert-butylcyclohexyl)urea]
27 | 95 | CC(=O)N1CCC(NC(=O)Nc2ccc(Oc3ccccc3)cc2)CC1 [Compound 7-12, 1-(1-acetylpiperidin-4-yl)-3-(4-phenoxyphenyl)urea]

Same assay, conditions: Inhibition Conc. 2000 nM

Row | % inh. [%] | Structure (SMILES)
28 | 18 | CC(=O)N1CCC(NC(=O)Nc2ccccn2)CC1 [Compound 6-10, 1-(1-acetylpiperidin-4-yl)-3-(pyridin-2-yl)urea]
29 | 44 | COc1ccc(NC(=O)NC2CCN(C(C)=O)CC2)cn1 [Compound 6-11, 1-(1-acetylpiperidin-4-yl)-3-(6-methoxypyridin-3-yl)urea]
30 | 40 | CC(=O)N1CCC(NC(=O)Nc2cccnc2)CC1 [Compound 6-12, 1-(1-acetylpiperidin-4-yl)-3-(pyridin-3-yl)urea]
31 | 97 | COc1ccc(NC(=O)NC2CCN(C(=O)C(C)(C)C)CC2)cn1 [Compound 6-13, 1-(6-methoxypyridin-3-yl)-3-(1-pivaloylpiperidin-4-yl)urea]
32 | 70 | CC(=O)N1CCC(NC(=O)Nc2ccc3nc(C)sc3c2)CC1 [Compound 6-15, 1-(1-acetylpiperidin-4-yl)-3-(2-methylbenzo[d]thiazol-6-yl)urea]
33 | 78 | COC(=O)c1ccc(NC(=O)NC2CCN(C(C)=O)CC2)s1 [Compound 6-16, methyl 5-(3-(1-acetylpiperidin-4-yl)ureido)thiophene-2-carboxylate]
34 | 89 | COC(=O)c1ccc(NC(=O)NC2CCN(C(=O)OC(C)(C)C)CC2)o1 [Compound 6-18, tert-butyl 4-(3-(5-(methoxycarbonyl)furan-2-yl)ureido)piperidine-1-carboxylate]
35 | 87 | CC(=O)N1CCC(NC(=O)Nc2ccc3c(c2)OCCO3)CC1 [Compound 6-19, 1-(1-acetylpiperidin-4-yl)-3-(2,3-dihydrobenzo[b][1,4]dioxin-6-yl)urea]

Same assay, conditions: Inhibition Conc. 5000 nM

Row | % inh. [%] | Structure (SMILES)
36 | 81 | CC(C)(C)OC(=O)N1CCC(NC(=O)Nc2ccncc2)CC1 [Compound 6-3, tert-butyl 4-(3-pyridin-4-yl-ureido)piperidine-1-carboxylate]
37 | 84 | CC(=O)N1CCC(NC(=O)Nc2ccc(-c3nnn[nH]3)cc2)CC1 [Compound 6-9, 1-(4-(1H-tetrazol-5-yl)phenyl)-3-(1-acetylpiperidin-4-yl)urea]
38 | 94 | CCCOc1ccc(NC(=O)NC2CCN(C(C)=O)CC2)cc1 [Compound 7-11, 1-(1-acetylpiperidin-4-yl)-3-(4-propoxyphenyl)urea]

Same assay, conditions: Inhibition Conc. 50000 nM

Row | % inh. [%] | Structure (SMILES)
39 | 53 | CC(=O)N1CCC(NC(=O)Nc2ccncc2)CC1 [Compound 6-7, 1-(1-acetyl-piperidin-4-yl)-3-(pyridin-4-yl)urea]
